Results reported in patent US20240116985A1, “STAPLED PEPTIDES AND METHODS THEREOF” (priority 2020, published 2024).
Read-outs that look alike come from different tables or passages of the source.

How the values were obtained:
[1] = molecular target: T1, full-length beta-Catenin (Uniprot ID P35222) (Homo sapiens, UniProt P35222); test: Fluorescence polarization IC50 (beta-catenin / 5FAM-TCF4 10-53 competition); assay type: binding
T1 construct: 10 nM full-length beta-Catenin (Uniprot ID P35222)
T1 sequence (P35222 1-781): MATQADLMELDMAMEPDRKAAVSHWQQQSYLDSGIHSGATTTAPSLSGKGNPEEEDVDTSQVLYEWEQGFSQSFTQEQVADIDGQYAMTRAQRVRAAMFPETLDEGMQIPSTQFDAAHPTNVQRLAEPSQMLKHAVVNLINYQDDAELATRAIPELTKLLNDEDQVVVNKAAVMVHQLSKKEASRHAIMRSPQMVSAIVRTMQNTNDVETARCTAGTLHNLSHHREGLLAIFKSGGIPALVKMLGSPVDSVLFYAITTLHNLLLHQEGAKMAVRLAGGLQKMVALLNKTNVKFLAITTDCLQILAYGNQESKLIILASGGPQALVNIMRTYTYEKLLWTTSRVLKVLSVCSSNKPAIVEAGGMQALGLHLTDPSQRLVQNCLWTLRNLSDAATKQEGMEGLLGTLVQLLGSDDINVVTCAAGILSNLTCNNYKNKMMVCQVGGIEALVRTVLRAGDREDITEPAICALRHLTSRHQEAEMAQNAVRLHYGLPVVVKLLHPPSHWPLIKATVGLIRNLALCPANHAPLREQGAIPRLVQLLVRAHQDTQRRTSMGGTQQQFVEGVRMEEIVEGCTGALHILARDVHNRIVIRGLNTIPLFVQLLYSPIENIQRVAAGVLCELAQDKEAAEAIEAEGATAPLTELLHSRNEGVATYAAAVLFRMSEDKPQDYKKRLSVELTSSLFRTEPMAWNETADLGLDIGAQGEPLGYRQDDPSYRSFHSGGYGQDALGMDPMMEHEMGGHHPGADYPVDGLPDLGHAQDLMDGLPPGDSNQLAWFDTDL

[2] = molecular target: T2, full-length B-Catenin (Uniprot ID P35222) (Homo sapiens, UniProt P35222); test: Alphascreen binding assay (beta-catenin / biotin-TCF4 10-53)
T2 construct: 65 nM full-length B-Catenin (Uniprot ID P35222)
T2 sequence (P35222 1-781): T1 sequence (P35222 1-781)
How it was run: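 AlphaScreen (Ni-chelate beads) competition in 50 mM Tris pH 8.0, 250 mM NaCl with detergents and 0.1% BSA. Peptide titrated 10 uM–5 nM against 65 nM human β-catenin bound to 10 nM biotinylated TCF4 10-53, 15 min then 60 min with beads, both at 20 °C; 1:1 Hill-slope fit.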

CHI Log D procedure = assay type: physicochemical; conditions: for CHI Log D: pH 7.4; for chromatographic logD: pH 7.4, CHI Log D
[3] = Table E2-1, read-out: beta-Catenin FP IC50
[4] = fluorescence polarization, beta-catenin, read-out: FP EC50

SMILES	IC50 [1, 3] [nM]	IC50 [1, 4] [nM]	EC50 [2] [nM]	CHI Log D (CHI Log D procedure)	chromatographic logD (CHI Log D procedure)
CC(=O)N1CCC[C@]12CC=CCCCC1(CCCC=CCCCCCC[C@@](C)(C(=O)N[C@@H](Cc3ccccc3)C(=O)N[C@@H](Cc3c[nH]c4ccccc34)C(=O)N[C@@H](C)C(N)=O)NC(=O)[C@H](C(C)C)NC(=O)[C@H](Cc3ccccc3)NC(=O)[C@H](C)NC(=O)[C@H](C)NC(=O)[C@H](CC(=O)O)NC(=O)[C@H](CC(=O)O)NC1=O)NC(=O)[C@H](C)NC(=O)[C@H](CC(=O)O)NC2=O (stereo partly drawn) [I-291, Ac-PL3-Asp-Ala-B5-Asp-Asp-Ala-Ala-Phe-Val-S8-Phe-Trp-Ala-NH2]	3130	3130	327	2.195	
CC(=O)N1CCC[C@]12CC=CCCCC1(CCCC=CCCCCCC[C@@](C)(C(=O)N[C@@H](Cc3ccccc3)C(=O)N[C@@H](Cc3c[nH]c4ccccc34)C(=O)N[C@@H](CCC(N)=O)C(N)=O)NC(=O)[C@H](C(C)C)NC(=O)[C@H](Cc3cccc(C(F)(F)F)c3)NC(=O)[C@H](C)NC(=O)[C@H](C)NC(=O)[C@H](CC(=O)O)NC(=O)[C@H](CC(=O)O)NC1=O)NC(=O)[C@H](C)NC(=O)[C@H](CC(=O)O)NC2=O (stereo partly drawn) [I-239, Ac-PL3-Asp-Ala-B5-Asp-Asp-Ala-Ala-3F3MeF-Val-S8-Phe-Trp-Gln-NH2]		1590	267	2.074	
CC[C@H](C)[C@@H]1NC(=O)[C@H](CC(=O)O)NC(=O)[C@]2(CC=CCCCC3(CCCC=CCOC(=O)N(C)CCC[C@@](C)(C(=O)N[C@@H](Cc4ccccc4)C(=O)N[C@@H](Cc4c[nH]c5ccccc45)C(=O)N[C@@H](Cc4c[nH]cn4)C(N)=O)NC(=O)[C@H](CCC(N)=O)NC(=O)[C@H](Cc4ccccc4)NC(=O)[C@H](C)NC(=O)[C@H](C)NC(=O)[C@H](CC(=O)O)NC(=O)[C@H](CC(=O)O)NC3=O)NC1=O)CCCN2C(C)=O (stereo partly drawn) [I-190, Ac-PL3-Asp-Ile-B5-Asp-Asp-Ala-Ala-Phe-Gln-SeN-Phe-Trp-His-NH2]	696	696	94	1.736	
CC[C@H](C)[C@@H]1NC(=O)[C@H](CC(=O)O)NC(=O)[C@]2(CC=CCCCC3(CCCC=CCOC(=O)N(C)CCC[C@@](C)(C(=O)N[C@@H](Cc4ccccc4)C(=O)N[C@@H](Cc4c[nH]c5ccccc45)C(=O)N[C@@H](Cc4c[nH]cn4)C(N)=O)NC(=O)[C@H](CCC(N)=O)NC(=O)[C@H](Cc4ccccc4)NC(=O)[C@H](C)NC(=O)[C@H](C)NC(=O)[C@H](CC(=O)O)NC(=O)[C@H](CC(=O)O)NC3=O)NC1=O)CCCN2C(C)=O (stereo partly drawn) [I-188, Ac-PL3-Asp-Ile-B5-Asp-Asp-Ala-Ala-Phe-Gln-SeN-Phe-Trp-His-NH2]	1600	1600	156	1.611	
CC(=O)N1CCC[C@]12CC=CCCCC1(CCCC=CCCCCCC[C@@](C)(C(=O)N[C@@H](Cc3ccccc3)C(=O)N[C@@H](Cc3csc4ccccc34)C(=O)N[C@@H](CCC(N)=O)C(N)=O)NC(=O)[C@H](CCC(N)=O)NC(=O)[C@H](Cc3ccccc3)NC(=O)[C@H](C)NC(=O)[C@H](C)NC(=O)[C@H](CC(=O)O)NC(=O)[C@H](CC(=O)O)NC1=O)NC(=O)[C@H](C)NC(=O)[C@H](CC(=O)O)NC2=O (stereo partly drawn) [I-294, Ac-PL3-Asp-Ala-B5-Asp-Asp-Ala-Ala-Phe-Gln-S8-Phe-BztA-Gln-NH2]	130		40		2
CC[C@H](C)[C@@H]1NC(=O)[C@H](CC(=O)O)NC(=O)[C@]2(CC=CCCCC3(CCCC=CCCCCCC[C@@](C)(C(=O)N[C@@H](Cc4ccccc4)C(=O)N[C@@H](Cc4c[nH]c5ccccc45)C(N)=O)NC(=O)[C@H](CCC(N)=O)NC(=O)[C@H](Cc4ccccc4)NC(=O)[C@H](C)NC(=O)[C@H](C)NC(=O)[C@H](CCC(=O)O)NC(=O)[C@H](CC(=O)O)NC3=O)NC1=O)CCCN2C(C)=O (stereo partly drawn) [I-193, Ac-PL3-Asp-Ile-B5-Asp-Glu-Ala-Ala-Phe-Gln-S8-Phe-Trp-NH2]	533	533	76	2.462	
CC(=O)N1CCC[C@]12CC=CCCCC1(CCCC=CCCCCCC[C@@](C)(C(=O)N[C@@H](Cc3ccccc3)C(=O)N[C@@H](Cc3csc4ccccc34)C(=O)N[C@@H](CCC(N)=O)C(N)=O)NC(=O)[C@H](C(C)C)NC(=O)[C@H](Cc3ccccc3)NC(=O)[C@H](C)NC(=O)[C@H](C)NC(=O)[C@H](CCC(=O)O)NC(=O)[C@H](CC(=O)O)NC1=O)NC(=O)[C@H](C)NC(=O)[C@H](CC(=O)O)NC2=O (stereo partly drawn) [I-144, Ac-PL3-Asp-Ala-B5-Asp-Glu-Ala-Ala-Phe-Val-S8-Phe-BztA-Gln-NH2]	147		66		2.12
CC(=O)N1CCC[C@]12CC=CCCCC1(CCCC=CCCCCCC[C@@](C)(C(=O)N[C@@H](Cc3ccccc3)C(=O)N[C@@H](Cc3c[nH]c4ccccc34)C(=O)N[C@@H](CCC(N)=O)C(N)=O)NC(=O)[C@H](C(C)C)NC(=O)[C@H](Cc3ccc(N)cc3)NC(=O)[C@H](C)NC(=O)[C@H](C)NC(=O)[C@H](CC(=O)O)NC(=O)[C@H](CC(=O)O)NC1=O)NC(=O)[C@H](C)NC(=O)[C@H](CC(=O)O)NC2=O (stereo partly drawn) [I-323, Ac-PL3-Asp-Ala-B5-Asp-Asp-Ala-Ala-4AmPhe-Val-S8-Phe-Trp-Gln-NH2]	3470	3470	92	1.953	
CC[C@H](C)[C@@H]1NC(=O)[C@H](CC(=O)O)NC(=O)[C@]2(CC=CCCCC3(CCCC=CCOC(=O)N(C)CCC[C@@](C)(C(=O)N[C@@H](Cc4ccccc4)C(=O)N[C@@H](Cc4c[nH]c5ccccc45)C(=O)N[C@@H](Cc4c[nH]cn4)C(N)=O)NC(=O)[C@H](CCC(N)=O)NC(=O)[C@H](Cc4ccccc4)NC(=O)[C@H](C)NC(=O)[C@H](C)NC(=O)[C@H](CC(=O)O)NC(=O)[C@H](CC(=O)O)NC3=O)NC1=O)CCCN2C(C)=O (stereo partly drawn) [I-189, Ac-PL3-Asp-Ile-B5-Asp-Asp-Ala-Ala-Phe-Gln-SeN-Phe-Trp-His-NH2]		1600	156	1.611	
CC(=O)N1CCC[C@]12CC=CCCCC1(CCCC=CCCCCCC[C@@](C)(C(=O)N[C@@H](Cc3ccccc3)C(=O)N[C@@H](Cc3c[nH]c4ccccc34)C(=O)N[C@@H](CCC(N)=O)C(N)=O)NC(=O)[C@H](C(C)C)NC(=O)[C@H](Cc3cccs3)NC(=O)[C@H](C)NC(=O)[C@H](C)NC(=O)[C@H](CC(=O)O)NC(=O)[C@H](CC(=O)O)NC1=O)NC(=O)[C@H](C)NC(=O)[C@H](CC(=O)O)NC2=O (stereo partly drawn) [I-325, Ac-PL3-Asp-Ala-B5-Asp-Asp-Ala-Ala-2Thi-Val-S8-Phe-Trp-Gln-NH2]	1310		53		1.98
CC(=O)N1CCC[C@]12CC=CCCCC1(CCCC=CCCCCCC[C@@](C)(C(=O)N[C@@H](Cc3ccccc3)C(=O)N[C@@H](Cc3c[nH]c4ccccc34)C(=O)N[C@@H](CCC(N)=O)C(N)=O)NC(=O)[C@H](C(C)C)NC(=O)[C@H](Cc3ccccc3)NC(=O)[C@H](C)NC(=O)[C@H](C)NC(=O)[C@H](CCC(N)=O)NC(=O)[C@H](CC(=O)O)NC1=O)NC(=O)[C@H](C)NC(=O)[C@H](CC(=O)O)NC2=O (stereo partly drawn) [I-127, Ac-PL3-Asp-Ala-B5-Asp-Gln-Ala-Ala-Phe-Val-S8-Phe-Trp-Gln-NH2]	4840	4840	552	2.245	
